Measurements taken from ChEMBL document CHEMBL1148151, “Micromide and guamamide: cytotoxic alkaloids from a species of the marine cyanobacterium Symploca” (J Nat Prod, 2004).
pIC50: −log10 of the molar value.

Test system: KB
Test: Cytotoxicity against human KB cells
Type: functional, cell-based

SMILES | pIC50
CCCCCCCCCCCC(=O)OC(C)C(OC(C)=O)C(C)C(=O)NC[C@H](O)CC(=O)OC (some centres not stated) [GUAMAMIDE] | 5.92
CCC[C@H](CC(=O)N[C@@H](Cc1ccccc1)C(=O)N(C)[C@@H](C(=O)N[C@H](C(=O)N(C)[C@H](C(=O)N(C)[C@@H](Cc1ccccc1)C(=O)N(C)Cc1nccs1)[C@@H](C)CC)C(C)C)C(C)C)OC [MICROMIDE] | 6.59
